“Also recorded” adds a separate entry of the source. Square brackets hold non-standard residues; d marks the D form. Peptide text beside a SMILES is read from it. * marks the point of attachment. sY = N[C@@H](Cc1ccc(OS(=O)(=O)O)cc1)C(=O)O; Cbz = O=C(OCc1ccccc1)*; Boc = CC(C)(C)OC(=O)*
Columns and labels:
CCK receptor, pancreas = biological target: T1, CCK receptor, pancreas (Rattus norvegicus, UniProt P30551); experiment: CCK Receptor Binding (Pancreas): inhibition of 125I-CCK(-33) binding; parameters: species or system rat (Male Sprague-Dawley); settings: protease inhibitors added to the binding assay
T1 construct: The whole pancreas was dissected free of fat tissue and was homogenized; from tissue; host or cells: rat pancreas membranes
T1 sequence (P30551 1-444): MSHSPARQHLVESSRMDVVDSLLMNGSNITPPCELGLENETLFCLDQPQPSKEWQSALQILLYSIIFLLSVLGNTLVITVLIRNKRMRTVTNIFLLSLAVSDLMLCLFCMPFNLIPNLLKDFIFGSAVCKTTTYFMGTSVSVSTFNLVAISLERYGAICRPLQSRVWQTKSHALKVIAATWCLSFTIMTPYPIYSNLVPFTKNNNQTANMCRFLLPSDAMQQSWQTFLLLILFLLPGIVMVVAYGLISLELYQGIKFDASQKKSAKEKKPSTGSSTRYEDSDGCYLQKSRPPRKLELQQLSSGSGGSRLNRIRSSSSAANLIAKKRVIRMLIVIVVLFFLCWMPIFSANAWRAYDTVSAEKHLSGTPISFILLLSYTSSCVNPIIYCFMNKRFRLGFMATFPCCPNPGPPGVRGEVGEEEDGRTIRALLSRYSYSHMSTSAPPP
Protocol: 1. CCK Receptor Binding (Pancreas)
CCK-33 was radiolabeled with ^125 I-Bolton Hunter reagent (2000 Ci/mmole) as described by Sankara et al. (J. Biol. Chem. 254: 9349-9351, 1979). Receptor binding was performed according to Innis and Snyder (Proc. Natl. Acad. Sci. 77, 6917-6921, 1980) with the minor modification of adding the additional protease inhibitors, phenylmethane sulfonyl fluoride and o-phenanthroline. The latter two compounds have no effect on the ^125 -CCK receptor binding assay.
Male Sprague-Dawley rats (200-350 g) were sacrificed by decapitation. The whole pancreas was dissected free of fat tissue and was homogenized in 20 volumes of ice-cold 50 mM, Tris HCl (pH 7.7 at 25° C.) with a Brinkmann Polytron PT 10. The homogenates were centrifuged at 48,000 g for 10 min. Pellets were resuspended in Tris Buffer, centrifuged as above and resuspended in 200 volumes of binding assay buffer (50 mM Tris HCl, pH 7.7 at 25° C., 5 mM dithiothrietol, 0.1 mM bacitracin, 1.2 mM phenylmethane sulfonyl fluoride and 0.5 mM o-phenanthroline). […] All assays were run in duplicate or triplicate. The reaction mixtures were incubated at 37° C. for 30 minutes and centrifuged in a Beckman Microfuge (4 minutes) immediately after adding 1 ml of ice-cold incubation buffer. The supernatant was aspirated and discarded, pellets were counted with a Beckman gamma 5000. […]

CCK receptor = settings: background literature; cited from earlier work
gastrin = settings: background literature; in vitro; cited from earlier work
[1] = biological target: T2, CCK receptor, brain (cerebral cortex) (Cavia porcellus, UniProt H0VZC5); experiment: CCK Receptor Binding (Brain): inhibition of 125I-CCK(-33) binding; parameters: species or system guinea pig (Male Hartley); settings: guinea pig cerebral cortex membranes
T2 construct: Cerebral cortex was dissected and used as a receptor source; from tissue; host or cells: guinea pig cerebral cortex membranes
T2 sequence (H0VZC5 1-426): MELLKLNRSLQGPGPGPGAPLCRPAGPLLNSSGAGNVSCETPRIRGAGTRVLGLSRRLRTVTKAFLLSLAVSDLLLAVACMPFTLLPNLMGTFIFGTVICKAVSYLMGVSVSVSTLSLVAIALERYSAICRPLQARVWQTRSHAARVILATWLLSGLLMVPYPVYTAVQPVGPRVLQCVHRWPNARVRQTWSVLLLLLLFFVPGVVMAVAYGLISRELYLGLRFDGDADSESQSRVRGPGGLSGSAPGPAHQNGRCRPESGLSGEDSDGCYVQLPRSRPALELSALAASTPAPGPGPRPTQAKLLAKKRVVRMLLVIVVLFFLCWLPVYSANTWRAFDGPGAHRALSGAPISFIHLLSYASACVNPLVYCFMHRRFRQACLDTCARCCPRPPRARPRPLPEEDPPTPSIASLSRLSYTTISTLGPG
Protocol: 2. CCK Receptor Binding (Brain)
CCK-33 was radiolabeled and the binding was performed according to the description for the pancreas method with modifications according to Saito et al., J. Neurochem. 37:483-490, 1981.
Male Hartley guinea pigs (300-500 g) were sacrificed by decapitation and the brains were removed and placed in ice-cold 50 mM, Tris HCl plus 7.58 g/l Trizma-7.4 (pH 7.4 at 25° C.). Cerebral cortex was dissected and used as a receptor source. Each gram of fresh guinea pig brain tissue was homogenized in 10 ml of Tris/Trizma buffer with a Brinkman polytron PT-10. The homogenates were centrifuged at 42,000 g for 15 minutes. Pellets were resuspended in Tris Buffer, centrifuged as above and resuspended in 200 volumes of binding assay buffer (10 mM N-2-hydroxyethyl-piperazine-N'-2-ethane sulfonic acid (HEPES), 5 mM MgCl2, 0.25 mg/ml bacitracin, 1 mM ethylene glycol-bis-(β-aminoethylether-N,N'-tetraadetic acid) (EGTA), and 0.4% bovine serum albumin (BSA)). […] All assays were run in duplicate or triplicate. The reaction mixtures were incubated at 25° C. for 2 hours and centrifuged in a Beckman Microfuge (4 minutes) immediately after adding 1 ml of ice-cold incubation buffer. The supernatant was aspirated and discarded, pellets were counted with a Beckman gamma 5000.

Row | SMILES | CCK antagonism (in words) (CCK receptor) | other results
1 | O=S(=O)(F)Cc1ccccc1 [phenylmethane sulfonyl fluoride] | – | effect on the 125-CCK receptor binding assay (CCK receptor, pancreas): no effect
2 | CSCC[C@H](NC(=O)[C@H](Cc1ccc(OS(=O)(=O)O)cc1)NC(=O)OCc1ccccc1)C(=O)NCC(=O)N[C@@H](Cc1c[nH]c2ccccc12)C(=O)N[C@@H](CCSC)C(=O)N[C@@H](CC(=O)O)C(N)=O [Cbz-Tyr(SO3 H)-Met-Gly-Trp-Met-Asp-NH2] (Cbz-[sY]MGWMD-NH2) | can function as CCK antagonists; also recorded: partial agonist | –
3 | CSCC[C@H](N)C(=O)N[C@@H](CC(=O)O)C(=O)N[C@@H](Cc1ccccc1)C(N)=O [Met-Asp-Phe-NH2] (H-Met-Asp-Phe-NH2) | can function as CCK antagonists | –
4 | CSCC[C@H](NC(=O)OC(C)(C)C)C(=O)N[C@@H](CC(=O)O)C(=O)N[C@@H](Cc1ccccc1)C(N)=O [Boc-Met-Asp-Phe-NH2] (Boc-Met-Asp-Phe-NH2) | can function as CCK antagonists | –
5 | CCCC(=O)Nc1nc2c(ncn2[C@@H]2O[C@@H]3COP(=O)(O)O[C@H]3[C@H]2OC(=O)CCC)c(=O)[nH]1 [dibutyryl cyclic GMP] | the most potent | –
6 | CCCN(CCC)C(=O)C(CCC(=O)O)NC(=O)c1ccccc1 (centres unmarked) [proglumide] | – | gastrin antagonism (in words) (gastrin): very weak in vitro antagonists
7 | CN1C(=O)[C@@H](NC(=O)c2cc3cc(O)ccc3[nH]2)N=C(c2ccccc2)c2ccccc21 [Example 15, 1,3-Dihydro-3-(5-hydroxyindole-2-carbonylamino)-1-methyl-5-phenyl-2H-1,4-benzodiazepin-2-one] | – | IC50 [1]: 910 nM
8 | c1cnc2c(c1)ccc1cccnc12 [o-phenanthroline] | – | effect on the 125-CCK receptor binding assay (CCK receptor, pancreas): no effect

Source: patent US5324726A, “Benzodiazepine analogs” (Merck & Co., Inc., priority 1992, dated 1994)
